Assays:
Assay in all cases: combination Emax (second highest fraction inhibited in the dose matrix, 72 h); higher = more inhibition; extreme values may be limits of the assay
[1] = test system: OACp4C (Esophageal Adenocarcinoma)
Outline: (§1)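 Cell lines in DMEM/F12 or RPMI with 10% FBS were plated in 1536-well plates, held 24 hours at 37°C, 5% CO2, then given two-drug dose matrices for 72 hours (DMSO typically 0.2%). Viability was read by CellTiter-Glo 2.0 luminescence and scaled as inhibition from 0 (vehicle wells) to 1 (blank wells). Combination Emax is the second-highest inhibition in the matrix; Bliss excess is observed combination effect minus expected EA + EB − EA·EB, EA and EB being single-agent effects.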

NB13 (Neuroblastoma) = test system: NB13 (Neuroblastoma)
Outline: as §1

[2] = test system: GCT (Other Solid Carcinomas)
Outline: as §1

[3] = test system: HT55 (Colorectal Carcinoma)
Outline: as §1

[4] = test system: JIMT-1 (Breast Carcinoma)
Outline: as §1

[5] = test system: KYSE-140 (Esophageal Squamous Cell Carcinoma)
Outline: as §1

EW-16 (Ewing's Sarcoma) = test system: EW-16 (Ewing's Sarcoma)
Outline: as §1

[6] = test system: JVM-2 (B-Cell Non-Hodgkin's Lymphoma)
Outline: as §1

[7] = test system: NCI-H2228 (Lung Adenocarcinoma)
Outline: as §1

[8] = test system: Jurkat (T-Lymphoblastic Leukemia)
Outline: as §1

[9] = test system: DU-4475 (Breast Carcinoma)
Outline: as §1

A101D (Melanoma) = test system: A101D (Melanoma)
Outline: as §1

COLO-792 (Melanoma) = test system: COLO-792 (Melanoma)
Outline: as §1

[10] = test system: CA46 (Burkitt's Lymphoma)
Outline: as §1

[11] = test system: EPLC-272H (Other Solid Carcinomas)
Outline: as §1

AU565 (Breast Carcinoma) = test system: AU565 (Breast Carcinoma)
Outline: as §1

[12] = test system: G-402 (Other Solid Carcinomas)
Outline: as §1

[13] = test system: GA-10 (Burkitt's Lymphoma)
Outline: as §1

RH-41 (Rhabdomyosarcoma) = test system: RH-41 (Rhabdomyosarcoma)
Outline: as §1

[14] = test system: ESO26 (Esophageal Adenocarcinoma)
Outline: as §1

Row | SMILES | combination Emax [1] | combination Emax (NB13 (Neuroblastoma)) | combination Emax [2] | combination Emax [3] | combination Emax [4] | combination Emax [5] | combination Emax (EW-16 (Ewing's Sarcoma)) | combination Emax [6] | combination Emax [7] | combination Emax [8] | combination Emax [9] | combination Emax (A101D (Melanoma)) | combination Emax (COLO-792 (Melanoma)) | combination Emax [10] | combination Emax [11] | combination Emax (AU565 (Breast Carcinoma)) | combination Emax [12] | combination Emax [13] | combination Emax (RH-41 (Rhabdomyosarcoma)) | combination Emax [14]
1 | C[C@@H](c1ccc2nccn2c1)n1nnc2ncc(-c3cnn(C)c3)nc21 [Savolitinib] + Cc1c2c(nn1C)CSCc1cc(n(C)n1)CSc1cc(c3ccccc3c1)OCCCc1c(C(=O)O)n(C)c3c-2c(Cl)ccc13 [AZD5991] (first compound max 1 µM, 7x7, partner max 1 µM) | 0.283 | 0.22 | 0.211 | 0.187 | 0.213 | 0.317 | 0.167 | 0.181 | 0.195 | 0.575 | 0.173 | 0.386 | 0.726 | 0.0743 | 0.462 | 1 | 0.409 | 0.669 | 0.888 | 0.169
2 | CN(CCO)CC[C@H](CSc1ccccc1)Nc1ccc(S(=O)(=O)NC(=O)c2ccc(N3CCC([C@@H](O)c4ccccc4-c4ccc(Cl)cc4)CC3)cc2)cc1S(=O)(=O)C(F)(F)F [AZD4320] + C[C@@H]1COCCN1C2=NC(=NC(=C2)C3(CC3)[S@](=N)(=O)C)C4=C5C=CNC5=NC=C4 [AZD6738] (first compound max 1 µM, 7x7, partner max 10 µM) | 0.95 | 1 | 0.304 | 0.707 | 0.871 | 0.878 | 0.932 | 0.908 | 0.466 | 0.955 | 1 | 0.891 | 0.692 | 0.362 | 0.936 | 0.494 | 0.84 | 0.979 | 0.964 | 0.628
3 | Cc1cc2ncnn2cc1Nc1ncc2c(n1)n(C1CCOCC1)c(=O)n2C [AZD7648] + C[C@@H]1COCCN1C2=NC(=NC(=C2)C3(CC3)[S@](=N)(=O)C)C4=C5C=CNC5=NC=C4 [AZD6738] (first compound max 10 µM, 7x7, partner max 10 µM) | 0.666 | 0.919 | 0.245 | 0.429 | 0.788 | 0.927 | 0.69 | 0.842 | 0.514 | 0.814 | 0.912 | 0.778 | 0.386 | 0.492 | 0.879 | 0.416 | 0.602 | 0.981 | 0.705 | 0.234
4 | Cc1cc2ncnn2cc1Nc1ncc2c(n1)n(C1CCOCC1)c(=O)n2C [AZD7648] + O=C(c1cc(Cc2n[nH]c(=O)c3ccccc23)ccc1F)N1CCN(C(=O)C2CC2)CC1 [Olaparib] (first compound max 10 µM, 7x7, partner max 10 µM) | 0.363 | 0.263 | 0.243 | 0.129 | 0.252 | 0.197 | 0.47 | 0.624 | 0.353 | 0.508 | 0.565 | 0.261 | 0.347 | 0.221 | 0.53 | 0.213 | 0.41 | 0.569 | 0.345 | 0.155
5 | COc1cc2c(cc1OCCCCCOc1cc3c(cc1OC)C(=O)N1C=C(C)C[C@H]1C=N3)N=C[C@@H]1CC(C)=CN1C2=O [SG3199] + O=C(c1cc(Cc2n[nH]c(=O)c3ccccc23)ccc1F)N1CCN(C(=O)C2CC2)CC1 [Olaparib] (first compound max 0.001 µM, 7x7, partner max 10 µM) | 0.136 | 0.213 | 0.204 | 0.149 | 0.139 | 0.0926 | 0.445 | 0.466 | 0.115 | 0.356 | 0.838 | 0.214 | 0.109 | 0.157 | 0.123 | 0.138 | 0.364 | 0.324 | 0.245 | 0.272
6 | Cc1cc2ncnn2cc1Nc1ncc2c(n1)n(C1CCOCC1)c(=O)n2C [AZD7648] + C=CCn1c(=O)c2cnc(Nc3ccc(N4CCN(C)CC4)cc3)nc2n1-c1cccc(C(C)(C)O)n1 [AZD1775] (first compound max 10 µM, partner max 1 µM) | 0.814 | 0.91 | 0.452 | 0.341 | 0.721 | 0.838 | 0.448 | 0.899 | 0.561 | 0.886 | 0.88 | 0.762 | 0.558 | 0.693 | 0.832 | 0.547 | 0.543 | 0.988 | 0.927 | 0.466
7 | CN(CCO)CC[C@H](CSc1ccccc1)Nc1ccc(S(=O)(=O)NC(=O)c2ccc(N3CCC([C@@H](O)c4ccccc4-c4ccc(Cl)cc4)CC3)cc2)cc1S(=O)(=O)C(F)(F)F [AZD4320] + C[C@@H](Nc1cc(F)cc(F)c1)c1cc(C(=O)N(C)C)cc2c(=O)cc(N3CCOCC3)oc12 [AZD8186] (first compound max 1 µM, 7x7, partner max 3 µM) | 0.916 | 1 | 0.442 | 0.422 | 0.316 | 0.401 | 0.937 | 0.892 | 0.329 | 0.842 | 1 | 0.781 | 0.939 | 0.196 | 0.602 | 0.364 | 0.681 | 0.85 | 0.941 | 0.325
8 | C[C@@H](c1ccc2nccn2c1)n1nnc2ncc(-c3cnn(C)c3)nc21 [Savolitinib] + CC1(C)CCC(CN2CCN(c3ccc(C(=O)NS(=O)(=O)c4ccc(NCC5CCOCC5)c([N+](=O)[O-])c4)c(Oc4cnc5[nH]ccc5c4)c3)CC2)=C(c2ccc(Cl)cc2)C1 [Venetoclax] (first compound max 1 µM, 7x7, partner max 1 µM) | 0.204 | 0.152 | 0.0973 | 0.0925 | 0.164 | 0.305 | 0.12 | 0.141 | 0.114 | 0.188 | 0.146 | 0.2 | 0.27 | 0.0492 | 0.205 | 0.168 | 0.131 | 0.101 | 0.201 | 0.0719
9 | CN(CCO)CC[C@H](CSc1ccccc1)Nc1ccc(S(=O)(=O)NC(=O)c2ccc(N3CCC([C@@H](O)c4ccccc4-c4ccc(Cl)cc4)CC3)cc2)cc1S(=O)(=O)C(F)(F)F [AZD4320] + Cc1cc2ncnn2cc1Nc1ncc2c(n1)n(C1CCOCC1)c(=O)n2C [AZD7648] (first compound max 1 µM, 7x7, partner max 10 µM) | 0.906 | 1 | 0.25 | 0.196 | 0.225 | 0.203 | 0.389 | 0.642 | 0.296 | 0.655 | 0.916 | 0.452 | 0.9 | 0.306 | 0.525 | 0.327 | 0.475 | 0.643 | 0.91 | 0.0775
10 | COc1cc2ncnc(Nc3ccc(F)c(Cl)c3)c2cc1OCCCN1CCOCC1 [Gefitinib] + CC(C)n1c(=O)n(C)c2cnc3cc(F)c(-c4ccc(OCCCN5CCCCC5)nc4)cc3c21 [AZD1390] (first compound max 10 µM, 7x7, partner max 0.3 µM) | 0.572 | 0.178 | 0.12 | 0.353 | 0.491 | 0.534 | 0.176 | 0.528 | 0.203 | 0.199 | 0.157 | 0.267 | 0.251 | 0.297 | 0.565 | 0.737 | 0.214 | 0.353 | 0.147 | 0.571
11 | Cc1nc(Nc2ncc(C(=O)Nc3c(C)cccc3Cl)s2)cc(N2CCN(CCO)CC2)n1 [Dasatinib] + CC(=O)Nc1cccc(-n2c(=O)n(C3CC3)c(=O)c3c(Nc4ccc(I)cc4F)n(C)c(=O)c(C)c32)c1 [Trametinib] (first compound max 2 µM, 7x7, partner max 1 µM) | 0.995 | 0.169 | 0.554 | 0.751 | 0.779 | 0.522 | 0.281 | 0.742 | 0.737 | 0.157 | 1 | 0.688 | 0.556 | 0.306 | 0.956 | 0.123 | 0.846 | 0.609 | 0.443 | 0.464

Reference: the supplement of paper PMC11061612
